Data set [1] in a line: Inhibition of LPS-induced M1 macrophage polarization in C57BL/6 mouse BMDM cells assessed as fold decrease in Inos gene level at 1 uM preincubated with LPS for 24 hrs followed by compound addition and measured after 24 hrs by qRT-PCR analysis (reference value: 524.05 +/- 24.75). Format: functional. A general note: Quantitative PCR measures a nucleic acid by following its amplification.

A short description of data set [2]: Cmax in ICR mouse at 50 mg/kg, po measured upto 24 hrs by LC/MS analysis. It is filed as ADME, organism-based. On the set-up: dose 50 mg/kg, time < 24 hrs, route po. The note with it: in vivo.
In data set [3] the test system is Mus musculus. Description: Anti-inflammatory activity in MOG (35 to 55 residues)/pertussis toxin-induced experimental autoimmune encephalomyelitis C57BL/6 mouse model assessed as M2 macrophage polarization by measuring increase in Ym1 mRNA expression in CNS at 75 to 150 mg/kg, po administered once daily starting from day 7 to day 20 by qRT-PCR analysis. The settings on record: dose 75-150 mg/kg, time 14.0 day. Format: functional, organism-based.

The subject of data set [4] is Mus musculus. Description: Anti-inflammatory activity in MOG (35 to 55 residues)/pertussis toxin-induced experimental autoimmune encephalomyelitis C57BL/6 mouse model assessed as T cell activation by measuring decrease in CD44hi CD62Llo T cells in spleen at 75 to 150 mg/kg, po administered once daily starting from day 7 to day 20 by flow cytometric analysis. The note with it: dose 75-150 mg/kg, time 14 day. It is filed as functional. On the set-up: scale not given: the % may be the effect or the level left. Background: In flow cytometry, cells or beads pass a laser one at a time.

In the next data set the test system is BMDM. As to the kind of experiment: Inhibition of LPS-induced M1 macrophage polarization in C57BL/6 mouse BMDM cells assessed as decrease in IFN-gamma level preincubated with LPS for 24 hrs followed by compound addition and measured after 24 hrs by qRT-PCR analysis. It is filed as functional, cell-based. The settings on record: dose 0.05-2 µM.
In data set [5] the test system is Mus musculus. As to the kind of experiment: Anti-inflammatory activity in MOG (35 to 55 residues)/pertussis toxin-induced experimental autoimmune encephalomyelitis C57BL/6 mouse model assessed as decrease in F4/80+ CD86+ M1 macrophage in DLN at 75 to 150 mg/kg, po administered once daily starting from day 7 to day 20 by flow cytometric analysis. Format: functional, organism-based. The note with it: dose 75-150 mg/kg, time 14.0 day.

The nature of data set [6]: Induction of M2 macrophage polarization in C57BL/6 mouse BMDM cells assessed as fold increase in Ym1 gene level at 1 uM incubated for 24 hrs by qRT-PCR analysis. Format: functional.
Data set [7] can be described thus: Inhibition of LPS-induced M1 macrophage polarization in C57BL/6 mouse BMDM cells assessed as fold change in IL-1beta gene level at 1 uM preincubated with LPS for 24 hrs followed by compound addition and measured after 24 hrs by qRT-PCR analysis (reference value: 44.88 +/- 1.99). Format: functional.
Data set [8] can be described thus: AUC(0 to t) in ICR mouse at 50 mg/kg, po measured upto 24 hrs by LC/MS analysis. Set-up: dose 50 mg/kg, time < 24 hrs, route po. Format: ADME, organism-based. The note with it: in vivo.
The subject of data set [9] is Mus musculus. As to the kind of experiment: Anti-inflammatory activity in MOG (35 to 55 residues)/pertussis toxin-induced experimental autoimmune encephalomyelitis C57BL/6 mouse model assessed as decrease in infiltrated inflammatory cells administered orally once daily starting from day 7 to day 20 by H&E staining based analysis. Format: functional, organism-based. The note with it: dose 75-150 mg/kg, route po, time 14.0 day.

Data set [10] relates to Mus musculus. Description: Anti-inflammatory activity in MOG (35 to 55 residues)/pertussis toxin-induced experimental autoimmune encephalomyelitis C57BL/6 mouse model assessed as T cell activation by measuring increase in CD44lo CD62Lhi naive T cells in spleen at 75 to 150 mg/kg, po administered once daily starting from day 7 to day 20 by flow cytometric analysis. It is filed as functional, organism-based. The settings on record: dose 75-150 mg/kg, time 14.0 day.

Data set [11] has as its system Mus musculus. As to the kind of experiment: Anti-inflammatory activity in MOG (35 to 55 residues)/pertussis toxin-induced experimental autoimmune encephalomyelitis C57BL/6 mouse model assessed as decrease in disease progression by measuring cumulative score at 75 to 150 mg/kg, po administered once daily starting from day 7 to day 20. Format: functional, organism-based. The note with it: dose 75-150 mg/kg, time 14.0 day.

Data set [12] has as its target RAC-alpha serine/threonine-protein kinase (Homo sapiens, UniProt P31749). As to the kind of experiment: Inhibition of AKT1 (unknown origin). Format: binding.
The subject of data set [13] is Mus musculus. As to the kind of experiment: Anti-inflammatory activity in MOG (35 to 55 residues)/pertussis toxin-induced experimental autoimmune encephalomyelitis C57BL/6 mouse model assessed as M2 macrophage polarization by measuring increase in Arg1 mRNA expression in CNS at 75 to 150 mg/kg, po administered once daily starting from day 7 to day 20 by qRT-PCR analysis. Format: functional, organism-based. The note with it: dose 75-150 mg/kg, time 14.0 day.

For data set [14], the system named is Mus musculus. Description: Anti-inflammatory activity in MOG (35 to 55 residues)/pertussis toxin-induced experimental autoimmune encephalomyelitis C57BL/6 mouse model assessed as inhibition of M1 macrophage polarization by measuring decrease in IL-6 mRNA expression in CNS at 75 to 150 mg/kg, po administered once daily starting from day 7 to day 20 by qRT-PCR analysis. The note with it: dose 75-150 mg/kg, time 14.0 day. It is filed as functional, organism-based.

Data set [15] relates to Mus musculus. Description: Anti-inflammatory activity in MOG (35 to 55 residues)/pertussis toxin-induced experimental autoimmune encephalomyelitis C57BL/6 mouse model assessed as T cell activation by measuring increase in CD44lo CD62Lhi naive T cells in DLN at 75 to 150 mg/kg, po administered once daily starting from day 7 to day 20 by flow cytometric analysis. It is filed as functional, organism-based. The note with it: dose 75-150 mg/kg, time 14.0 day.

A short description of data set [16]: Induction of M2 macrophage polarization in C57BL/6 mouse BMDM cells assessed as fold increase in Arg1 gene level at 1 uM incubated for 24 hrs by qRT-PCR analysis. Format: functional.
Data set [17] can be described thus: Inhibition of LPS-induced M1 macrophage polarization in C57BL/6 mouse BMDM cells assessed as fold change in IL-6 gene level at 1 uM preincubated with LPS for 24 hrs followed by compound addition and measured after 24 hrs by qRT-PCR analysis (reference value: 36.05 +/- 10.74). It is filed as functional.

Structures are written as SMILES. pIC50: −log10 of the molar value. Calls of active or inactive are those of the source. The calls are words filed in the database; no cut-off is given here.

Chain of RAC-alpha serine/threonine-protein kinase (P31749 whole entry, the tested form may be a part): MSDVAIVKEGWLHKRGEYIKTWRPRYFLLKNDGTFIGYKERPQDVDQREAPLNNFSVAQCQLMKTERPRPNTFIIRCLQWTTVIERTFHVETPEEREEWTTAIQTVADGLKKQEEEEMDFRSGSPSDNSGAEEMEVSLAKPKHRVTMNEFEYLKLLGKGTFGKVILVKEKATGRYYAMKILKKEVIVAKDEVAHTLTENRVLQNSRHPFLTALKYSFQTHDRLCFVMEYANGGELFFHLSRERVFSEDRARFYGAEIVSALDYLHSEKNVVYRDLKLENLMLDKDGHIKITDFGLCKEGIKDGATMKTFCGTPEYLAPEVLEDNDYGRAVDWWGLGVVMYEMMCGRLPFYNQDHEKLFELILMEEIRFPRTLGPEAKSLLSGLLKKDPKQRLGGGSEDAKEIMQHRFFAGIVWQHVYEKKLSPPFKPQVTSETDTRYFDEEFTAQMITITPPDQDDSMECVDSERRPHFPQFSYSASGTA

The Cmax is the peak of the concentration-time curve. The AUC(0-t) is exposure summed from dosing to a finite time, without extrapolation to infinity. What is called pIC50 is −log10 of the IC50, conventionally taken in molar units. Turning to `Cl.Cn1ncc(Br)c1-c1ccc(C(=O)N[C@@H]2CNCC[C@H]2c2ccc(F)c(F)c2)cc1C1CC1`, the “fold change (FC)” value was 195.4 in [1]; 14.31 in data set [6]; 71.77 in data set [7]; 10.28 in [16]; 69.99 in data set [17]. The compound further yielded a Cmax in data set [2] of 1990 ng/mL. Also, the outcome in the data set with Mus musculus [3], in the data set with Mus musculus [5], with Mus musculus [10], with Mus musculus [11], in the data set with Mus musculus [13] and in the data set with Mus musculus [14] was Active. The result in the data set with Mus musculus [15] was Active. Besides, the Activity in the data set with Mus musculus [4] was 19%; in the data set with Mus musculus [9], “Dose-Dependent Effect”. Besides, in the data set with BMDM, the inhibition result was “Dose-Dependent Effect”. This compound also displayed an AUC(0-t) at 24 h in data set [8] of 27600 ng·h/mL. The negative logarithm of the IC50 (pIC50) in [12] was 6.36.

Source of the values: ChEMBL document CHEMBL5352415, “Discovery of new macrophage M2 polarization modulators as multiple sclerosis treatment agents that enable the inflammation microenvironment remodeling” (Eur J Med Chem, 2022).
